Columns and labels:
Format in all cases: in vivo
[1] = test system: Polygonum convolvulus; test: Post-emergence test, weed control; conditions: 2–4 weeks after treatment, rating 0-100 (100=death), Table 5
Summary of the method: (§1)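 Post-emergence spray; dose ~0.030–0.240 kg/ha/pot from acetone stock diluted in water. Greenhouse, 2–4 wk. Score 0 = untreated-like growth, 100 = death.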

[2] = test system: Setaria viridis; test: Post-emergence test, weed control; conditions: 2–4 weeks after treatment, rating 0-100 (100=death), Table 5
Summary of the method: as §1

[3] = test system: VIOAR; test: Post-emergence test, weed control; conditions: 2–4 weeks after treatment, rating 0-100 (100=death), Table 5
Summary of the method: as §1

[4] = test system: Triticum aestivum variety “Kanzler”; test: Post-emergence test, selectivity; conditions: 2–4 weeks after treatment, rating 0-100 (100=death), Table 6
Experimental: (§2) These acetone solutions are diluted with water and the resulting formulations applied at dosage levels equivalent of about 0.030 to 0.240 kg per hectare of test compound per pot. After spraying the plants are placed an greenhouse benches and are cared for in the usual manner, commensurate with conventional greenhouse practices. From 2 to 4 weeks after treatment, the seedling plants are examined and rated according to the rating system provided above. A rating 0 indicates growth as untreated control, a rating 100 indicates death.

[5] = test system: Triticum aestivum variety “Monopol”; test: Post-emergence test, selectivity; conditions: 2–4 weeks after treatment, rating 0-100 (100=death), Table 6
Experimental: as §2

[6] = test system: wheat; test: Pre-emergence test, tolerance in wheat
Summary of the method: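 Pre-emergence soil spray on recently sown prepared horticultural loam; dose 15/30/60/120/240 g a.i./ha, 900 l/ha. Formulation: acetone + 0.4% w/w alkylphenol-EO condensate, water-diluted. Readout: visual score at 3 wk, 0 (untreated) to 100 (dead).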

[7] = test system: barley; test: Pre-emergence test, tolerance in barley
Experimental: The pre-emergence tests involve spraying a liquid formulation of the compound onto the soil in which the seeds of the plant species mentioned above has recently been sown.
The soil used in the tests is a prepared horticultural loam. The formulations used in the tests are prepared from solutions of the test compounds in acetone containing 0.4% by weight of an alkylphenol/ethylene oxide condensate available under the trade mark TRITON X-155.
These acetone solutions are diluted with water and the resulting formulations applied at dosage levels corresponding to 15 g, 30 g, 60 g, 120 g or 240 g of active material per hectare in a volume equivalent to 900 liters per hectare. In these tests untreated sown soil is used as control. The herbicidal effects of the test compounds are assessed visually three weeks after spraying the soil and are recorded an a 0 to 100 scale. A rating 0 indicates growth as untreated control, a rating 100 indicates death. An increase of 10 unit an the linear scale approximates to a 10% increase in the level of effect. The results of the assessment are set out in Tables 1 to 4.

[8] = test system: grasses and broadleaf weeds; test: Post-emergence test, overall weed control
Experimental: as §2

Row | SMILES | POLCO weed control rating ([1]; 0.030 kg/ha) | POLCO weed control rating ([1]; 0.060 kg/ha) | POLCO weed control rating ([1]; 0.120 kg/ha) | POLCO weed control rating ([1]; 0.240 kg/ha) | SETVI weed control rating ([2]; 0.030 kg/ha) | SETVI weed control rating ([2]; 0.060 kg/ha) | SETVI weed control rating ([2]; 0.120 kg/ha) | SETVI weed control rating ([2]; 0.240 kg/ha) | VIOAR weed control rating ([3]; 0.030 kg/ha) | VIOAR weed control rating ([3]; 0.060 kg/ha) | VIOAR weed control rating ([3]; 0.120 kg/ha) | VIOAR weed control rating ([3]; 0.240 kg/ha) | TRZAWK rating (Selectivity) ([4]; 0.03 kg/ha) | TRZAWK rating (Selectivity) ([4]; 0.06 kg/ha) | TRZAWK rating (Selectivity) ([4]; 0.12 kg/ha) | TRZAWK rating (Selectivity) ([4]; 0.24 kg/ha) | TRZAWM rating (Selectivity) ([5]; 0.03 kg/ha) | TRZAWM rating (Selectivity) ([5]; 0.06 kg/ha) | TRZAWM rating (Selectivity) ([5]; 0.12 kg/ha) | TRZAWM rating (Selectivity) ([5]; 0.24 kg/ha) | other results
1 | FC(F)(F)c1ccc(-c2nccc(Oc3cccc(C(F)(F)F)c3)n2)cc1 [TTP, 4-(3-trifluoromethylphenoxy)-2-(4-trifluoromethyl-phenyl)-pyrimidine] | 10 | 60 | 35 | 90 | 93 | 97 | 97 | 100 | 90 | 92 | 92 | 95 | 2 | 8 | 8 | 15 | 1 | 8 | 8 | 12 | maximum tolerated dose in wheat / dose at which sufficiently selective in wheat ([6]; pre-emergence): 240 g/ha; dose at which sufficiently selective in barley [7]: 15 g/ha
2 | CCc1cc(Oc2cccc(C(F)(F)F)c2)nc(-c2ccc(C(F)(F)F)cc2)n1 [REF-3] |  | 35 | 55 | 80 | 95 | 98 | 99 | 100 | 90 | 90 | 90 | 93 | 12 | 15 | 25 | 35 | 10 | 15 | 22 | 30 | maximum tolerated dose in wheat / dose at which sufficiently selective in wheat ([6]; in vivo): 60 g/ha; weed control at wheat selective doses [8]: incomplete
3 | Cc1nc(-c2ccc(C(F)(F)F)cc2)nc(Oc2cccc(C(F)(F)F)c2)c1C [REF-2] |  | 0 | 25 | 40 | 30 | 55 | 96 | 100 | 75 | 90 | 90 | 95 | 3 | 5 | 8 | 10 | 2 | 5 | 8 | 8 | 
4 | Cc1cnc(-c2ccc(C(F)(F)F)cc2)nc1Oc1cccc(C(F)(F)F)c1 [REF-1] | 15 |  | 25 | 70 | 99 | 99 | 100 | 100 | 92 | 93 | 93 | 95 | 18 | 25 | 30 | 40 | 15 | 22 | 30 | 45 | dose at which sufficiently selective in barley [7]: did not exhibit acceptable tolerance in barley at any dose

Source: patent publication US7008905B2, “Method of combating undesired plant growth on cereals” (BASF Aktiengesellschaft, priority 2000, dated 2006)
